Test results: patent publication US20240409532A1, “BIPHENYL SULFONAMIDES AS DUAL ANGIOTENSIN ENDOTHELIN RECEPTOR ANTAGONISTS” (Chongqing Hongyuantang Medicine Co., Ltd., priority 2023, published 2024)

Molecular target: T1, ETA receptor (Rattus norvegicus, UniProt P26684)
T1 construct: evaluated in isolated rat aortic ring; from tissue; host or cells: isolated rat aortic ring
T1 sequence (P26684 21-426): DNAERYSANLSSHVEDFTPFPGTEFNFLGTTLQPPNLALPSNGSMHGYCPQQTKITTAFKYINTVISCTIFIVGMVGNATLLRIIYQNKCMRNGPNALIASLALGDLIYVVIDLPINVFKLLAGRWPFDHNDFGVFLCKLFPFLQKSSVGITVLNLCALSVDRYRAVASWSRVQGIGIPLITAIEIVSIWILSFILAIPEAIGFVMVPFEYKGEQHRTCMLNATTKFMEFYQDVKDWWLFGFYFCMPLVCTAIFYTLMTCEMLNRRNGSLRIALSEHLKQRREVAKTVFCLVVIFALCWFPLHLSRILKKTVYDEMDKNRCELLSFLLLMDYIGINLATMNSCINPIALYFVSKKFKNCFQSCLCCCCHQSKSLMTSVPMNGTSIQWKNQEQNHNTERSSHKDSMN
Experiment: In vitro evaluation of inhibitory activity against ETA receptor (isolated rat aortic ring, literature procedure)
Assay type: biochemical
Conditions: telmisartan as control
Protocol: The biological activity of compounds was evaluated in isolated rat aortic ring and in systemic arterial pressure (SAP) of anesthetized rat experiments using the literature procedures in Chinese Pharmacological Bulletin 2008, 24 (11): 1422-1426.
Telmisartan, as an AT1 receptor antagonist approved for marketing by the US FDA in 1998, was used as a control to evaluate the inhibitory activity of AT1 and ETA receptors.

SMILES | Ki [nM]
CCOCc1cc(Cn2c(CC)nc3c(C)cc(-c4nc5ccccc5n4C)cc32)ccc1-c1ccccc1S(=O)(=O)Nc1noc(C)c1C [Compound 1-7, N-(4,5-dimethylisoxazol-3-yl)-2′-(ethoxymethyl)-4′-((2′-ethyl-1,7′-dimethyl-1H,3′H-[2,5′-bibenzo[d]imidazol]-3′-yl)methyl)-[1,1′-biphenyl]-2-sulfonamide] | 13.2 ± 3.3
CCOCc1cc(Cn2c(C)nc3c(C)cc(-c4nc5ccccc5n4C)cc32)ccc1-c1ccccc1S(=O)(=O)Nc1noc(C)c1C [Compound 1-4] | > 102
CCCc1nc2c(C)cc(-c3nc4ccccc4n3C)cc2n1Cc1ccc(-c2ccccc2S(=O)(=O)Nc2noc(C)c2C)c(COCC)c1 [Compound 1-10, 4′-((1,7′-dimethyl-2′-propyl-1H,3′H-[2,5′-bibenzo[d]imidazol]-3′-yl)methyl)-N-(4,5-dimethylisoxazol-3-yl)-2′-(ethoxymethyl)-[1,1′-biphenyl]-2-sulfonamide] | 6.8 ± 1.8

Second part, the compound after the results:

Ki [nM] | SMILES
7.2 ± 2.1 | CCCCc1nc2c(C)cc(-c3nc4ccccc4n3C)cc2n1Cc1ccc(-c2ccccc2S(=O)(=O)Nc2noc(C)c2C)c(COCC)c1 [Compound 1-13, 4′-((2′-butyl-1,7′-dimethyl-1H,3′H-[2,5′-bibenzo[d]imidazol]-3′-yl)methyl)-N-(4,5-dimethylisoxazol-3-yl)-2′-(ethoxymethyl)-[1,1′-biphenyl]-2-sulfonamide]
9.2 ± 2.3 | CCCCc1nc2c(C)cc(-c3nc4ccccc4n3C)cc2n1Cc1ccc(-c2ccccc2S(=O)(=O)Nc2onc(C)c2C)c(COCC)c1 [Compound 2-5, 4′-((2′-butyl-1,7′-dimethyl-1H,3′H-[2,5′-bibenzo[d]imidazol]-3′-yl)methyl)-N-(3,4-dimethylisoxazol-5-yl)-2′-(ethoxymethyl)-[1,1′-biphenyl]-2-sulfonamide]
8.8 ± 2.2 | CCCc1nc2c(C)cc(-c3nc4ccccc4n3C)cc2n1Cc1ccc(-c2ccccc2S(=O)(=O)Nc2onc(C)c2C)c(COCC)c1 [Compound 2-3, 4′-((1,7′-dimethyl-2′-propyl-1H,3′H-[2,5′-bibenzo[d]imidazol]-3′-yl)methyl)-N-(3,4-dimethylisoxazol-5-yl)-2′-(ethoxymethyl)-[1,1′-biphenyl]-2-sulfonamide]
> 103 | CCCc1nc2c(C)cc(-c3nc4ccccc4n3C)cc2n1Cc1ccc(-c2ccccc2C(=O)O)cc1 [Telmisartan, reference compound]
